What was measured:
GluR2 receptor = biological target: T1, GluR2 receptor (Rattus norvegicus, UniProt P19491); experiment: Electrophysiologic studies in GluR2 expressing oocytes (I/Imax versus concentration); type: cell-based; settings: cells expressing the GluR2 receptor, FIG. 16A-D
T1 construct: expressed in transfected cells; host or cells: Xenopus laevis oocytes
Description: FIG. 16A-E. Electrophysiologic studies comparing N,N′-(2R,2′R)-2,2′-(biphenyl-4,4′-diyl)bis(propane-2,1-diyl)dipropane-2-sulfonamide) with LY451646. A. Microamperes of current over various periods of time in a GluR2 expressing oocyte (Xenopus laevis oocyte with microinjected rat GluR2 receptor-encoding mRNA), exposed to various concentrations (0.001 μM, 0.01 μM, 0.1 μM and 1 μM) of N,N′-(2R,2′R)-2,2′-(biphenyl-4,4′-diyl)bis(propane-2,1-diyl)dipropane-2-sulfonamide). B. Microamperes of current over various periods of time in a GluR2 expressing oocyte exposed to various concentrations (0.001 μM, 0.01 μM, 0.1 μM, 1 μM and 10 μM) of LY451646. C. In an oocyte expressing GluR2, ratio of current/maximal current (I/Imax) versus concentration of N,N′-(2R,2′R)-2,2′-(biphenyl-4,4′-diyl)bis(propane-2,1-diyl)dipropane-2-sulfonamide). D. In an oocyte expressing GluR2, ratio of current/maximal current (I/Imax) versus concentration of LY451646. E. N,N′-(2R,2′R)-2,2′-(biphenyl-4,4′-diyl)bis(propane-2,1-diyl)dipropane-2-sulfonamide).

locomotor activity = experiment: Amphetamine-induced locomotor activity in activity chambers; type: in vivo; settings: mice, 1 mg/kg and 3 mg/kg i.p.
Description: FIG. 17. Effect of N,N′-(2R,2′R)-2,2′-(biphenyl-4,4′-diyl)bis(propane-2,1-diyl)dipropane-2-sulfonamide) on locomotor activity in the context of various doses of amphetamine.
Mice (male, 8 weeks of age; 129S6/SvEv from Taconic) were housed in groups of five for one week. Animals were injected (i.p.) with either vehicle (diluent:saline at a ratio of 3:50 v/v), or one of two doses of GR341 (1 mg/kg and 3 mg/kg). After 15 minutes, animals were injected (i.p.) either with saline or Amphetamine at 3 mg/kg. Mice were held individually without food or water for an additional 15 minutes and then placed in Plexiglas activity chambers (model ENV-520; Med Associates, St. Albans, Vt.) (43.2 cm long×43.2 cm wide×30.5 cm high) to assess locomotor activity. Mice were placed into the center of the open field, and activity was recorded for 30 minutes with subtotals for 5-minute increments. Testing was performed in darkness to minimize anxiety.

Delta ATD GluR2 = experiment: Two electrode voltage clamp (TEVC) recording of glutamate currents in oocytes; type: cell-based; settings: glutamate plus compound versus glutamate alone, FIG. 3
Excerpt: FIG. 3. LY451646 potentiates glutamate currents from Delta ATD GluR2 as measured by TEVC in oocytes. The top tracing represents application of glutamate alone, the bottom tracing glutamate plus LY451646.
(§1) LY451646 is an […] of GluR2. […] The top tracing represents application of glutamate alone, the bottom tracing glutamate plus LY451646. […] In the absence of LY451646, the amount of dimerized GluR2 barely rises above baseline (FIG. 4A). With the addition of LY451646, dimers overtake monomers (FIG. 4B).

GluR2 S1S2 = GluR2 S1S2 (Rattus norvegicus, UniProt P19491, DEL528-650/N775S/S652T/V651G); experiment: Dimerization of GluR2 S1S2; settings: FIG. 4A-B
GluR2 S1S2, sequence (P19491 with tags, fused parts or gaps DEL528-650/V651G/S652T/N775S): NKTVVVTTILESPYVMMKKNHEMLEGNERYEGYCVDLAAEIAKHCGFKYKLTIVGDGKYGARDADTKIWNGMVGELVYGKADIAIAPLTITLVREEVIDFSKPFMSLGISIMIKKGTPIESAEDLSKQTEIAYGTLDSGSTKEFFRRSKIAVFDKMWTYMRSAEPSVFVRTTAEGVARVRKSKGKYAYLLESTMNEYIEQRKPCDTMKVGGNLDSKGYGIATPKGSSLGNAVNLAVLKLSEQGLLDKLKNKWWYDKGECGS
Excerpt: (A) GluR2 alone; (B) GluR2S1S2 in the presence of LY451646.
as §1

despair = settings: Bai et al., 2001; cited from earlier work
[1] = test system: hippocampal cell proliferation; settings: rats, Bai et al., 2003; cited from earlier work
GluR21 receptors = GluR21 receptors (Rattus norvegicus, UniProt P19491); experiment: Whole-cell recording, potentiation of steady-state glutamate-induced currents; type: cell-based; settings: whole-cell mode (−60 mV), 1 mM glutamate
GluR21 receptors, sequence (P19491 22-883 isoform P19491-2 limits assumed): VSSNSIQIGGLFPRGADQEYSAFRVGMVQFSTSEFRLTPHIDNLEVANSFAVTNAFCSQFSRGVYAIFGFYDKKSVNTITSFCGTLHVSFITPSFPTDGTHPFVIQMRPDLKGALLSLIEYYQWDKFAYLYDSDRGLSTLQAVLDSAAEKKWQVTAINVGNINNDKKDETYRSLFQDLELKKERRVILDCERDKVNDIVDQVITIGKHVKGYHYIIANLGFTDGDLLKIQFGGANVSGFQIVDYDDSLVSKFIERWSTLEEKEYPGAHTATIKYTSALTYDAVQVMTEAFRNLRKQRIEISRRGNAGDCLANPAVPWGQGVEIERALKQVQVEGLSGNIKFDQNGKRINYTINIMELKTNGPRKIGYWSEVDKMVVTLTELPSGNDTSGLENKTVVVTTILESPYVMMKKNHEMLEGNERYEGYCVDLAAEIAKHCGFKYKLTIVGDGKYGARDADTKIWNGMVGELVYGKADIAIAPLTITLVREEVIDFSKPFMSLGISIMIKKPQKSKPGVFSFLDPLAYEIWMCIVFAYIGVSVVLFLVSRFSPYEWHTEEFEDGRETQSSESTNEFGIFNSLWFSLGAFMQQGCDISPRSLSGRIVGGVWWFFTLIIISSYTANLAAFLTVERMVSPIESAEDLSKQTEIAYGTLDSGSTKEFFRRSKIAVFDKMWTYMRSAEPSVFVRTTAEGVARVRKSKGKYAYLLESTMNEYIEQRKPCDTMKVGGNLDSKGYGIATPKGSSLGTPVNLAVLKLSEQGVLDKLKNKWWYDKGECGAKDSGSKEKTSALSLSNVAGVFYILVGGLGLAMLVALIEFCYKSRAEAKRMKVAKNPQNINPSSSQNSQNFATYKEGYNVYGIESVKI
Description: FIG. 18. (A) Potentiation of steady-state glutamate-induced currents for GluR2; receptors and (B) % current potentiation bar graph.
Potentiation of steady-state glutamate-induced currents for GluR21 receptors by N,N′-(2S,2′S)-2,2′-(biphenyl-4,4′-diyl)bis(2-fluoropropane-2,1-diyl)dipropane-2-sulfonamide).
The recordings are in whole-cell mode (−60 mV) and show inward currents elicited by 1 mM glutamate in the presence of various concentrations of N,N′-(2S,2′S)-2,2′-(biphenyl-4,4′-diyl)bis(2-fluoropropane-2,1-diyl)dipropane-2-sulfonamide).

AMPA = settings: rat, glucose utilization and c-fos expression, Fowler et al., 2004; cited from earlier work
[2] = biological target: GluR2 Flip splice variant (Homo sapiens, UniProt P42262); settings: by decreasing desensitization, Quirk and Nisenbaum, 2003; cited from earlier work
GluR2 Flip splice variant, sequence (P42262 22-883 isoform P42262-2 limits assumed): as the sequence (P19491 22-883 isoform P19491-2 limits assumed) above, with T170M, A270T, G743R, P831A counted along it

[3] = test system: rat model of Parkinson's disease; settings: O'Neil et al., 2004; cited from earlier work

T1 sequence (P19491 22-883): as the sequence (P19491 22-883 isoform P19491-2 limits assumed) above, with T744N, P745A, S754N, V758L, A775S, K776G, D777G, S778G, G779D counted along it

In the case of `CC(C)S(=O)(=O)NC[C@H](C)c1ccc(-c2ccc([C@@H](C)CNS(=O)(=O)C(C)C)cc2)cc1` [GR341], the EC50 (GluR2 receptor) is reported as 12.7 ± 0.6 nM, the “effect on amphetamine-induced locomotor activity” value (locomotor activity; amphetamine 3 mg/kg i.p., 30 minutes, FIG. 17) is reported as “inhibited amphetamine-induced locomotor activity” and the “effect of the compound alone on locomotor activity” value (locomotor activity; saline instead of amphetamine) is reported as “no significant effect”.

For `CC(C)S(=O)(=O)NC[C@H](C)c1ccc(-c2ccc(C#N)cc2)cc1` [LY451646], the “effect on glutamate currents” value (Delta ATD GluR2) was “potentiate glutamate currents”, the “dimerization of GluR2 S1S2” value (GluR2 S1S2) was “promotes dimerization” and the EC50 (GluR2 receptor) was 130 ± 16 nM. For the same compound, the “"despair" in the FST and TST” value (despair) was “reduce “despair”” and the hippocampal cell proliferation [1] was “increase hippocampal cell proliferation”.

For `CC(C)S(=O)(=O)NC[C@@](C)(F)c1ccc(-c2ccc([C@](C)(F)CNS(=O)(=O)C(C)C)cc2)cc1` [N,N′-(2S,2′S)-2,2′-(biphenyl-4,4′-diyl)bis(2-fluoropropane-2,1-diyl)dipropane-2-sulfonamide)], the saturating concentration (GluR21 receptors) was 200 nM, the “effect on glutamate receptor currents” value (GluR21 receptors; FIG. 18) was “potentiates glutamate receptor currents” and the EC50 (GluR21 receptors; FIG. 18B, approximately half saturating concentration) was about 50 nM.

In the case of `CC(CNS(=O)(=O)C(C)C)c1ccc(-c2ccc(C#N)cc2)cc1` (centres unmarked) [LY404187, R,S—N-2-(4-(4-Cyanophenyl)phenyl)propyl 2-propanesulfonamide], the “glutamate dependent AMPA stimulation of the brain” value (AMPA) is listed as “increases glutamate dependent AMPA stimulation”, the “receptor's response to glutamate” value [2] is listed as “potentiate the receptor's response to glutamate” and the neurotrophic effect [3] is listed as “exhibit a neurotrophic effect”.
